Results on 13 molecules are retold here after patent US10344019B2 (priority 2010, dated 2019).

Format in all cases: cell-based
Experiment [1] concerns Q30R in genotype 1a NS5A, 1a Rluc replicon transfected into Huh-7 cured-51 cells. As to the kind of experiment: HCV replicon assay, resistance mutant 1a Q30R. Conditions: Hepatitis C virus, Huh-7, read-out: 1a Q30R. A digest of the protocol: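 Q30R introduced into genotype 1a H77 RLuc replicon by site-directed mutagenesis; replicon RNA transfected into Huh-7 cured-51 cells.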
For orientation: Replicon systems follow genome replication, usually without infectious particles.

The test system of experiment [2] is HCV 2a JFH-1 Rluc cells (dicistronic genotype 2a JFH-1 replicon, RLuc reporter). As to the kind of experiment: microbe, parasite or virus in culture. The settings on record: Hepatitis C virus, genotype 2a JFH-1 RLuc replicon; read-out: 2a JFH. A digest of the protocol: (§1)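 Replicon cells stably carrying the listed RLuc-encoding dicistronic replicons were seeded and treated with DMSO serial dilutions of compound (10 mM stocks) diluted into culture medium. After 72 h, cells were lysed and Renilla luciferase activity measured. EC50 was derived by non-linear regression.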

Experiment [3] has as its system HCV 1b RLuc cells (dicistronic genotype 1b Con1 replicon, RLuc reporter). As to the kind of experiment: microbe, parasite or virus in culture. The settings on record: Hepatitis C virus, read-out: 1b (nM). A digest of the protocol: as §1
In experiment [4] the test system is HCV 2b Rluc cells (NS5A chimeric genotype 2a JFH-1 replicon with genotype 2b MD2b-1 NS5A gene, M31 present). The experiment in a line: microbe, parasite or virus in culture. The settings on record: Hepatitis C virus, read-out: 2b. A digest of the protocol: as §1
In experiment [5] the test system is HCV 1a RLuc cells (dicistronic genotype 1a H77 replicon, RLuc reporter). The experiment in a line: microbe, parasite or virus in culture. Conditions: Hepatitis C virus, genotype 1a H77 RLuc replicon; read-out: 1a. A digest of the protocol: as §1
The test system of experiment [6] is HCV 3a RLuc cells (NS5A chimeric genotype 1b Con1 replicon with consensus genotype 3a NS5A gene). The experiment in a line: microbe, parasite or virus in culture. Conditions: Hepatitis C virus, read-out: 3a, genotype 3a NS5A chimeric replicon. A digest of the protocol: as §1
Experiment [7] has as its system HCV 4a Rluc cells (NS5A chimeric genotype 1b Con1 replicon with genotype 4a NS5A gene). As to the kind of experiment: microbe, parasite or virus in culture. Conditions: Hepatitis C virus, read-out: 4a. A digest of the protocol:
as §1

Experiment [8] deals with HCV 2a Rluc cells (NS5A chimeric genotype 2a JFH-1 replicon with genotype 2a J6 strain NS5A gene, M31 present). The experiment in a line: HCV replicon reporter assay, genotype 2a J6 (M31 present). Conditions: Hepatitis C virus, read-out: 2a J6. A digest of the protocol:
as §1

With `COC[C@H]1C[C@@H](c2nc3ccc4cc(-c5ccc(-c6cnc([C@@H]7CCCN7C(=O)[C@@H](NC(=O)OC)C(C)C)[nH]6)cc5OC(F)F)ccc4c3[nH]2)N(C(=O)[C@H](NC(=O)OC)c2ccccc2)C1` [Example 567], the EC50 in experiment [1] was 0.001 to 0.999 nM; in experiment [2], 0.001 to 0.999 nM; in experiment [3], 0.007 nM; in experiment [4] it was 0.001 to 0.999 nM; in experiment [5] it was 0.001 to 0.999 nM; in experiment [6], 0.001 to 0.99 nM. Also, the EC50 in experiment [7] was 0.001 to 0.99 nM; in experiment [8], 0.001 to 0.999 nM.

With `COC[C@H]1C[C@@H](c2nc3ccc4cc(-c5ccc6c(ccc7nc([C@@H]8C[C@H](C)CN8C(=O)[C@@H](NC(=O)OC)C(C)C)[nH]c76)c5)ccc4c3[nH]2)N(C(=O)[C@@H](NC(=O)OC)C(C)C)C1` [Example 568], the EC50 is 0.001 to 0.999 nM in experiment [1]; 0.001 to 0.999 nM in experiment [2]; 0.021 nM in experiment [3]; 0.001 to 0.999 nM in experiment [4]; 0.001 to 0.999 nM in experiment [5]; 0.001 to 0.99 nM in experiment [6]. In addition, the EC50 was 0.001 to 0.99 nM in experiment [7] and 0.001 to 0.999 nM in experiment [8].

On to `COC(=O)N[C@H](C(=O)N1C[C@@H](C)C[C@H]1c1ncc(-c2ccc3c(c2)COc2cc4c(ccc5nc([C@@H]6C[C@H](C)CN6C(=O)[C@@H](NC(=O)OC)C(C)C)[nH]c54)cc2-3)[nH]1)C(C)C` [Example 569], for which the EC50 was 0.001 to 0.999 nM in experiment [1]; 0.001 to 0.999 nM in experiment [2]; 0.024 nM in experiment [3]; 0.001 to 0.999 nM in experiment [4]; 0.001 to 0.999 nM in experiment [5]; 0.001 to 0.99 nM in experiment [6]. Also, the EC50 lay within 0.001 to 0.99 nM in experiment [7] and 0.001 to 0.999 nM in experiment [8].

Take `COC[C@H]1C[C@@H](c2nc3ccc4cc5c(cc4c3[nH]2)OCc2cc(-c3cnc([C@@H]4CCCN4C(=O)[C@@H](NC(=O)OC)C(C)C)[nH]3)ccc2-5)N(C(=O)[C@H](N)c2ccccc2)C1` [Example 571]: the EC50 in experiment [1] is 0.001 to 0.999 nM; in experiment [2], 0.001 to 0.999 nM; in experiment [3], 0.114 nM; in experiment [4] it was 0.001 to 0.999 nM; in experiment [5], 0.001 to 0.999 nM; in experiment [6], 0.001 to 0.99 nM. Moreover, the EC50 in experiment [7] fell in the range of 0.001 to 0.99 nM; in experiment [8] it was 0.001 to 0.999 nM.

For `COC(=O)N[C@H](C(=O)N1C[C@@H](C)C[C@H]1c1nc2ccc3cc4c(cc3c2[nH]1)OCc1cc(-c2cnc([C@@H]3C[C@H](C)CN3C(=O)[C@H](NC(=O)OC)c3ccccc3)[nH]2)ccc1-4)C(C)C` [Example 573], the EC50 in experiment [1] was 0.001 to 0.999 nM; in experiment [2], 0.001 to 0.999 nM; in experiment [3] it was 0.03 nM; in experiment [4], 0.001 to 0.999 nM; in experiment [5] it was 0.001 to 0.999 nM; in experiment [6], 0.001 to 0.99 nM. The EC50 lay in the range of 0.001 to 0.99 nM in experiment [7] and 0.001 to 0.999 nM in experiment [8].

Turning to `COC(=O)N[C@H](C(=O)N1[C@H](c2nc3ccc4cc5c(cc4c3[nH]2)OCc2cc(-c3cnc(C4CCCN4C(=O)[C@@H](NC(=O)OC)C4CCOCC4)[nH]3)ccc2-5)C[C@@H]2CCC[C@@H]21)C(C)C` (some centres unmarked) [Example 575], the EC50 in experiment [1] is 0.001 to 0.999 nM; in experiment [2], 0.001 to 0.999 nM; in experiment [3] it was 0.029 nM; in experiment [4], 0.001 to 0.999 nM; in experiment [5], 0.001 to 0.999 nM; in experiment [6] it was 0.001 to 0.99 nM. For the same molecule, the results for the EC50 in experiment [7] and in experiment [8] were 0.001 to 0.99 nM and 0.001 to 0.999 nM, respectively.

`COC[C@H]1C[C@@H](c2ncc(-c3ccc4c(c3)COc3cc5c(ccc6nc([C@@H]7C[C@H](COC)CN7C(=O)[C@@H](NC(=O)OC)C(C)C)[nH]c65)cc3-4)[nH]2)N(C(=O)[C@@H](NC(=O)OC)C(C)C)C1` [Example 579]: the EC50 in experiment [1] is 0.001 to 0.999 nM; in experiment [2], 0.001 to 0.999 nM; in experiment [3] it was 0.034 nM; in experiment [4] it was 0.001 to 0.999 nM; in experiment [5], 0.001 to 0.999 nM; in experiment [6], 0.001 to 0.99 nM. For the same molecule, the EC50 in experiment [7] lay within 0.001 to 0.99 nM; in experiment [8], 0.001 to 0.999 nM.

Take `CC#Cc1cc2nc([C@@H]3CCCN3C(=O)[C@@H](NC(=O)OC)C(C)C)[nH]c2c2ccc(-c3ccc4c(ccc5nc([C@@H]6C[C@H](COC)CN6C(=O)[C@H](NC(=O)OC)c6ccccc6)[nH]c54)c3)cc12` [Example 581]: the EC50 in experiment [1] was 0.001 to 0.999 nM; in experiment [2], 0.001 to 0.999 nM; in experiment [3] it was 0.007 nM; in experiment [4], 0.001 to 0.999 nM; in experiment [5], 0.001 to 0.999 nM; in experiment [6], 0.001 to 0.99 nM. Also, the EC50 in experiment [7] was 0.001 to 0.99 nM; in experiment [8] it was 0.001 to 0.999 nM.

In the case of `COC(=O)N[C@H](C(=O)N1C[C@@H](C)C[C@H]1c1ncc(-c2ccc3c(c2)COc2cc4c(ccc5nc([C@@H]6C[C@H](C)CN6C(=O)[C@H](NC(=O)OC)c6ccccc6)[nH]c54)cc2-3)[nH]1)C(C)C` [Example 582], the EC50 in experiment [1] is 0.001 to 0.999 nM; in experiment [2], 0.001 to 0.999 nM; in experiment [3], 0.01 nM; in experiment [4], 0.001 to 0.999 nM; in experiment [5], 0.001 to 0.999 nM; in experiment [6], 0.001 to 0.99 nM. Further, the EC50 was in the range of 0.001 to 0.99 nM in experiment [7] and 0.001 to 0.999 nM in experiment [8].

Regarding `COC[C@H]1C[C@@H](c2nc3ccc4cc(-c5ccc6c(ccc7nc([C@@H]8C[C@H](SCC(F)(F)F)CN8C(=O)[C@@H](NC(=O)OC)C(C)C)[nH]c76)c5)ccc4c3[nH]2)N(C(=O)[C@H](NC(=O)OC)c2ccccc2)C1` [Example 584], the EC50 in experiment [1] was 0.001 to 0.999 nM; in experiment [2], 0.001 to 0.999 nM; in experiment [3], 0.015 nM; in experiment [4], 0.001 to 0.999 nM; in experiment [5], 0.001 to 0.999 nM; in experiment [6] it was 0.001 to 0.99 nM. Besides, the EC50 in experiment [7] fell in the range of 0.001 to 0.99 nM; in experiment [8] it was 0.001 to 0.999 nM.

As to `COC(=O)N[C@H](C(=O)N1[C@@H](C)CC[C@H]1c1ncc(-c2ccc3c(c2)COc2cc4c(ccc5nc([C@@H]6CC[C@H](C)N6C(=O)[C@@H](NC(=O)OC)C(C)C)[nH]c54)cc2-3)[nH]1)C(C)C` [Example 585], the EC50 in experiment [1] was 0.001 to 0.999 nM; in experiment [2], 0.001 to 0.999 nM; in experiment [3], 0.009 nM; in experiment [4], 0.001 to 0.999 nM; in experiment [5], 0.001 to 0.999 nM; in experiment [6] it was 0.001 to 0.99 nM. In addition, the EC50 in experiment [7] was 0.001 to 0.99 nM; in experiment [8], 0.001 to 0.999 nM.

In the case of `COC[C@H]1C[C@@H](c2ncc(-c3ccc4c(c3)COc3cc5c(ccc6nc([C@@H]7CCCN7C(=O)[C@@H](NC(=O)OC)C(C)C)[nH]c65)cc3-4)[nH]2)N(C(=O)[C@H](NC(=O)OC)c2ccccc2)C1` [Example 590], the EC50 in experiment [1] was 0.001 to 0.999 nM; in experiment [2], 0.001 to 0.999 nM; in experiment [3] it was 0.014 nM; in experiment [4] it was 0.001 to 0.999 nM; in experiment [5], 0.001 to 0.999 nM; in experiment [6] it was 0.001 to 0.99 nM. For the same molecule, the EC50 in experiment [7] was 0.001 to 0.99 nM; in experiment [8], 0.001 to 0.999 nM.

For `COC[C@H]1C[C@@H](c2ncc(-c3cc4c5c(c3)OCc3cc(-c6cnc([C@@H]7CC[C@H](C)N7C(=O)[C@@H](NC(=O)OC)C(C)C)[nH]6)cc(c3-5)OC4)[nH]2)N(C(=O)[C@H](NC(=O)OC)c2ccccc2)C1` [Example 596], the EC50 in experiment [1] was 0.001 to 0.999 nM; in experiment [2] it was 0.001 to 0.999 nM; in experiment [3], 0.013 nM; in experiment [4], 0.001 to 0.999 nM; in experiment [5], 0.001 to 0.999 nM; in experiment [6] it was 0.001 to 0.99 nM. Further, the EC50 in experiment [7] lay within 0.001 to 0.99 nM; in experiment [8], 0.001 to 0.999 nM.
